According to ChEMBL document CHEMBL4387731, “Eicosanoid mediation of cannabinoid actions” (2019):

What was measured:
[1] = Inhibition of IL1aplha-induced PGE2 production in bovine articular chondrocytes at 5 uM incubated for 48 hrs by ELISA relative to control; type: functional; conditions: Bos taurus
Cavia porcellus [2] = organism: Cavia porcellus; experiment: Agonist activity at Dunkin Hartley guinea pig CB2 receptor assessed as inhibition of capsaicin-induced depolarization at 20 uM incubated for 10 mins relative to control
Cavia porcellus [3] = organism: Cavia porcellus; experiment: Agonist activity at Dunkin Hartley guinea pig CB2 receptor assessed as reduction in […] level at 20 uM incubated for 10 mins relative to control
[4] = molecular target: Cannabinoid receptor 2 (Homo sapiens) (UniProt P34972); experiment: Agonist activity at human CB2 receptor assessed as reduction in […] level at 20 uM incubated for 10 mins relative to control
Cannabinoid receptor 2 (Homo sapiens), sequence (P34972 whole entry): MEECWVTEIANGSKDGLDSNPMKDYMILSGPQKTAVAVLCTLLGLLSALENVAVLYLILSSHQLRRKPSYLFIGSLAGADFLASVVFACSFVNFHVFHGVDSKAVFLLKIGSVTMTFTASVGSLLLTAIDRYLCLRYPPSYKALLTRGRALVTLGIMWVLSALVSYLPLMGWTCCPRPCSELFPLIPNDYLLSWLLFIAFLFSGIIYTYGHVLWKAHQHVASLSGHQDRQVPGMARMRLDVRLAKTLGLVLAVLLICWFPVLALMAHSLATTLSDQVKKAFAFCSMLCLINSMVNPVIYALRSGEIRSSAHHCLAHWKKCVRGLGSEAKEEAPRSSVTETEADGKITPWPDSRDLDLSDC

[5] = molecular target: Cannabinoid receptor 2 (Homo sapiens) (UniProt P34972); experiment: Agonist activity at human CB2 receptor assessed as inhibition of capsaicin-induced depolarization at 20 uM incubated for 10 mins relative to control
Oryctolagus cuniculus = experiment: Reduction in intraocular pressure in rabbit applied topically relative to control; type: functional; parameters: scale not given: the % may be the effect or the level left
J774 = experiment: Inhibition of LPS-induced PGE2 production in mouse J774 cells at 10 uM incubated for 24 hrs by enzyme immunoassay relative to control; type: functional; conditions: J774, 24 h
Mus musculus [6] = experiment: Reduction in LTB4 production in athymic CD-1 nude mouse xenografted with human U87 cells at 0.5 mg/mouse/day administered peritumorally for 5 days by RP-HPLC analysis relative to control; type: functional; parameters: scale not given: the % may be the effect or the level left
Mus musculus [7] = experiment: Reduction in anandamide production in athymic CD-1 nude mouse xenografted with human U87 cells at 0.5 mg/mouse/day administered peritumorally for 5 days by RP-HPLC with fluorimetric detection method relative to control; type: functional; parameters: scale not given: the % may be the effect or the level left

SMILES: CCCCCCC(C)(C)c1cc(O)c2c(c1)OC(C)(C)[C@@H]1CCC(CO)=C[C@@H]21
- inhibition at 5 µM [1]: > 50%

SMILES: Cc1c(C(=O)c2cccc3ccccc23)c2cccc3c2n1[C@H](CN1CCOCC1)CO3 [WIN-552122]
- inhibition at 5 µM [1]: > 50%

SMILES: O=C(NCc1ccncc1)c1cnc(Nc2cccc(Cl)c2)nc1C(F)(F)F
- Imax (Cavia porcellus [2]): 40%
- Imax (Cavia porcellus [3]): 40%
- Imax [4]: 40%
- Imax [5]: 40%

SMILES: CCCCCc1cc(O)c2c(c1)OC(C)(C)[C@@H]1CCC(C)=C[C@@H]21 [DRONABINOL]
- Activity (Oryctolagus cuniculus): 20 - 25%
- inhibition at 10 µM (J774): 60%

SMILES: C=C(C)[C@@H]1CCC(C)=C[C@H]1c1c(O)cc(CCCCC)cc1O [CANNABIDIOL]
- Activity (Mus musculus [6]): 25%
- Activity (Mus musculus [7]): 30%
